Experimental data as given in patent US12492197B2, “3,5-disubstituted pyrazole compounds as kinase inhibitors and uses thereof” (IMPACT THERAPEUTICS (SHANGHAI), INC, priority 2019, dated 2025).

Columns and labels:
[1] = test system: human colon cancer cell LoVo; assay: Proliferation of LoVo cells, MTT assay; type: cell-based; conditions: 96 h, 4 days treatment, read-out: IC50 (inhibition of proliferation of LoVo)
Description: Newly revived LoVo cells (purchased from Shanghai Cell Institute) were cultured and passaged for at least three generations before use. Cells were used at 90% confluence for experiment. Cells were digested with trypsinase and centrifuged at 800 rpm for 5 minutes and the supernatant was discarded. The cell pellets were resuspended in fresh RPMI1640 medium and counted. Cells were seeded on 96-well cell culture plates at 5000 cells/well and incubated overnight at 37° C., 5% CO2. The stock solutions of the test substances (including the test compounds and the reference compound) were serially diluted to 8 concentrations with DMSO at a ratio of 1:3. 5 μL of each series diluted solutions was added to 120 μL of medium (diluted by 25 times) and mixed by shaking. […] The cell culture plates were returned to incubator at 37° C. and 5% CO2 for 4 days. At the end of treatment, the cell viability was determined by MTT colorimetric assay. Cell culture medium in each well was replaced by 100 μL/well of serum-free DMEM medium containing MTT (0.5 mg/mL), and the culture was continued for additional 4 hours. Medium was then discarded and 100 μL/well of DMSO was added.
(§1) Data was analyzed by GraphPad Prism 6.0. The inhibitory effects of compounds on cell proliferation were plotted based on cell viability vs. the logarithm of compound concentration. Cell viability %=(ODcompound−ODbackground)/(ODDMSO−ODbackground)×100.

[2] = test system: human breast cancer cell HCC1806; assay: Proliferation of HCC1806 cells, MTT assay; type: cell-based; conditions: HCC1806, 72 h, 3 days treatment, read-out: IC50 (inhibition of proliferation of HCC1806)
Description: Newly revived HCC1806 cells (purchased from Guangzhou Genio) were cultured and passaged for at least three generations before use. Cells were used at 90% confluency for experiments. Cells were digested with trypsinase and centrifuged at 800 rpm for 5 minutes. The cell pellets were resuspended in fresh RPMI1640 medium and cells were counted. Cells were seeded on 96-well cell culture plates at 2000 cells/well and incubated overnight at 37° C., 5% CO2. The stock solutions of the test substances (including the test compounds and the reference compound) were serially diluted to 8 concentrations with DMSO at a ratio of 1:3. Five μL of each of the serially diluted solutions were added to 120 μL of medium (diluted by 25 times) and mixed by shaking. […] The cell culture plates were returned to incubator at 37° C., 5% CO2 for 3 days. At the end of treatment the cell viability was determined by MTT colorimetric assay. Cell culture medium in each well was replaced by 100 μL/well of serum-free fresh medium containing MTT (0.5 mg/mL), and the culture was continued for additional 4 hours.
as §1

CHK1 kinase = target: T1, CHK1 kinase (Homo sapiens, UniProt O14757); assay: CHK1 kinase inhibition, ADP-Glo kinase assay; type: biochemical; conditions: ATP 10 μM, CHK1 1 ng/well; for IC50: read-out: IC50 (inhibitory effect on CHK1 kinase activity); for inhibition at 0.01 µM: compound concentration 10 nM, read-out: Inh % (inhibitory effect on CHK1 kinase activity)
T1 construct: purchased Promega V1941
T1 sequence (O14757 1-476): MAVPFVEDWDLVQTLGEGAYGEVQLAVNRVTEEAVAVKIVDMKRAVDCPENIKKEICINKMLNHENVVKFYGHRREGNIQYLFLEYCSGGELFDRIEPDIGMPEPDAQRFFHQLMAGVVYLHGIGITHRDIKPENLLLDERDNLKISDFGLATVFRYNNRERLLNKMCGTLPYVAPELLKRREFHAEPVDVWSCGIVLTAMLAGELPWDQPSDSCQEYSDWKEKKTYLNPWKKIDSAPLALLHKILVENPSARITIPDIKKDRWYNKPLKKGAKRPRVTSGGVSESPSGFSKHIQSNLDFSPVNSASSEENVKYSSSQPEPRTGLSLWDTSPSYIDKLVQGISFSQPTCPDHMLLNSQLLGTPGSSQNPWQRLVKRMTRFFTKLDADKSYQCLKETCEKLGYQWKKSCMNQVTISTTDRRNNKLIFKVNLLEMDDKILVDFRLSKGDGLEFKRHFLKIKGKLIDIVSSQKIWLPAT
Description: 2 μL of kinase CHK1 (#V1941, Promega), 1 μL of compound diluted with buffer, and 2 μL of ATP substrate was successively added to a 384-well plate (final concentration of CHK1 was 1 ng/well, ATP was 10 μM). The positive control wells contained CHK1, ATP and DMSO whereas the negative control wells contained ATP, DMSO without enzyme. The mixtures were centrifuged at 1000 rpm for 1 minute and kept in darkness at room temperature for 1 hour to react. Then, 5 μL of ADP-Glo reagent was added to each well and incubated at room temperature for 40 minutes. At the end of incubation, 10 μL of kinase detection reagent was added to each well, and the relative chemiluminescence values (RLU) were measured on Varioskan® Flash (Thermo). The following calculation was performed: Inhibition rate %=(RLU of positive control−RLU of compound)/(RLU of positive control−RLU of negative control)×100. Data were analyzed using GraphPad Prism6.0 and fitted using the curve equation: Y=Bottom+(Top-Bottom)/(1+10^((Log IC50−X)*HillSlope)), and IC50 values were calculated.

With COc1cccc(OC[C@H]2CCCNC2)c1-c1cc(Nc2cnc(C#N)c(C)n2)n[nH]1 [Example 28, (S)-5-((5-(2-methoxy-6-(piperidin-3-ylmethoxy)phenyl)-1H-pyrazol-3-yl)amino)-3-methylpyrazine-2-carbonitrile] the IC50 [1] was 42.5 nM, the IC50 [2] was 42.2 nM and the IC50 (CHK1 kinase) was 0.3 nM.

In the case of COc1cccc(OCC2CNC2)c1-c1cc(Nc2cnc(C#N)cn2)n[nH]1 [Example 31, 5-((5-(2-(azetidin-3-ylmethoxy)-6-methoxyphenyl)-1H-pyrazol-3-yl)amino)pyrazine-2-carbonitrile], the IC50 [1] is reported as 5.6 nM, the IC50 [2] is reported as 6.4 nM and the IC50 (CHK1 kinase) is reported as 0.38 nM.

In the case of COc1cccc(OC[C@H]2CCCN(C)C2)c1-c1cc(Nc2cnc(C#N)cn2)n[nH]1 [Example 32, (S)-5-((5-(2-methoxy-6-((1-methylpiperidin-3-yl)methoxy)phenyl)-1H-pyrazol-3-yl)amino)pyrazine-2-carbonitrile], the IC50 [1] is reported as 25.6 nM, the IC50 [2] is reported as 31.7 nM and the inhibition at 0.01 µM (CHK1 kinase) is reported as 91%.

In the case of COc1cccc(OC[C@H]2CCCCN2)c1-c1cc(Nc2cnc(C#N)cn2)n[nH]1 [Example 33, (R)-5-((5-(2-methoxy-6-(piperidin-2-ylmethoxy)phenyl)-1H-pyrazol-3-yl)amino)pyrazine-2-carbonitrile], the IC50 [1] is reported as 26 nM, the IC50 [2] is reported as 32.4 nM and the inhibition at 0.01 µM (CHK1 kinase) is reported as 97%.

COc1cccc(OC[C@H]2CCCOC2)c1-c1cc(Nc2cnc(C#N)cn2)n[nH]1 [Example 34, (S)-5-((5-(2-methoxy-6-((tetrahydro-2H-pyran-3-yl)methoxy)phenyl)-1H-pyrazol-3-yl)amino)pyrazine-2-carbonitrile] was tested, and the IC50 [1] was 64.9 nM, the IC50 [2] was 102 nM and the inhibition at 0.01 µM (CHK1 kinase) was 69%.

CCOc1cccc(OC[C@H]2CCCNC2)c1-c1cc(Nc2cnc(C#N)cn2)n[nH]1 [Example 35, (S)-5-((5-(2-ethoxy-6-(piperidin-3-ylmethoxy)phenyl)-1H-pyrazol-3-yl)amino)pyrazine-2-carbonitrile] was tested, and the IC50 [1] was 21.2 nM, the IC50 [2] was 21.6 nM and the IC50 (CHK1 kinase) was 1.78 nM.

CC(C)Oc1cccc(OC[C@H]2CCCNC2)c1-c1cc(Nc2cnc(C#N)cn2)n[nH]1 [Example 36, (S)-5-((5-(2-isopropoxy-6-(piperidin-3-ylmethoxy)phenyl)-1H-pyrazol-3-yl)amino)pyrazine-2-carbonitrile] showed an IC50 [1] of 807 nM, an IC50 [2] of 698 nM and an inhibition at 0.01 µM (CHK1 kinase) of 63%.

COc1c(F)ccc(OC[C@H]2CCCNC2)c1-c1cc(Nc2cnc(C#N)cn2)n[nH]1 [Example 37, (S)-5-((5-(3-fluoro-2-methoxy-6-(piperidin-3-ylmethoxy)phenyl)-1H-pyrazol-3-yl)amino)pyrazine-2-carbonitrile] showed an IC50 [1] of 28.8 nM, an IC50 [2] of 30.5 nM and an IC50 (CHK1 kinase) of 0.77 nM.

In the case of COc1cc(F)cc(OC[C@H]2CCCNC2)c1-c1cc(Nc2cnc(C#N)cn2)n[nH]1 [Example 38, (S)-5-((5-(4-fluoro-2-methoxy-6-(piperidin-3-ylmethoxy)phenyl)-1H-pyrazol-3-yl)amino)pyrazine-2-carbonitrile], the IC50 [1] is reported as 3.2 nM, the IC50 [2] is reported as 3.5 nM and the IC50 (CHK1 kinase) is reported as 0.52 nM.

With COc1cc(F)cc(OC[C@H]2CCNC2)c1-c1cc(Nc2cnc(C#N)cn2)n[nH]1 [Example 39, (S)-5-((5-(4-fluoro-2-methoxy-6-(pyrrolidin-3-ylmethoxy)phenyl)-1H-pyrazol-3-yl)amino)pyrazine-2-carbonitrile] the IC50 [1] was 1 nM, the IC50 [2] was 1 nM and the IC50 (CHK1 kinase) was 0.2 nM.

In the case of COc1cc(Cl)cc(OC[C@H]2CCCNC2)c1-c1cc(Nc2cnc(C#N)cn2)n[nH]1 [Example 40, (S)-5-((5-(4-chloro-2-methoxy-6-(piperidin-3-ylmethoxy)phenyl)-1H-pyrazol-3-yl)amino)pyrazine-2-carbonitrile], the IC50 [1] is reported as 6.6 nM, the IC50 [2] is reported as 5.5 nM and the IC50 (CHK1 kinase) is reported as 0.88 nM.

For COc1cc(Br)cc(OC[C@H]2CCCNC2)c1-c1cc(Nc2cnc(C#N)cn2)n[nH]1 [Example 41, (S)-5-((5-(4-bromo-2-methoxy-6-(piperidin-3-ylmethoxy)phenyl)-1H-pyrazol-3-yl)amino)pyrazine-2-carbonitrile], the IC50 [1] was 5.1 nM, the IC50 [2] was 4.4 nM and the IC50 (CHK1 kinase) was 0.85 nM.

COc1c(C)ccc(OC[C@H]2CCCNC2)c1-c1cc(Nc2cnc(C#N)cn2)n[nH]1 [Example 42, (S)-5-((5-(2-methoxy-3-methyl-6-(piperidin-3-ylmethoxy)phenyl)-1H-pyrazol-3-yl)amino)pyrazine-2-carbonitrile] was tested, and the IC50 [1] was 66.6 nM, the IC50 [2] was 69.2 nM and the inhibition at 0.01 µM (CHK1 kinase) was 85%.

COc1cc(C)cc(OC[C@H]2CCCNC2)c1-c1cc(Nc2cnc(C#N)cn2)n[nH]1 [Example 43, (S)-5-((5-(2-methoxy-4-methyl-6-(piperidin-3-ylmethoxy)phenyl)-1H-pyrazol-3-yl)amino)pyrazine-2-carbonitrile] was tested, and the IC50 [1] was 1.6 nM, the IC50 [2] was 1.6 nM and the IC50 (CHK1 kinase) was 1.17 nM.

With COc1cc(C)cc(OC[C@@H]2CNCCO2)c1-c1cc(Nc2cnc(C#N)cn2)n[nH]1 [Example 44, (S)-5-((5-(2-methoxy-4-methyl-6-(morpholin-2-ylmethoxy)phenyl)-1H-pyrazol-3-yl)amino)pyrazine-2-carbonitrile] the IC50 [1] was 18 nM, the IC50 [2] was 13.3 nM and the IC50 (CHK1 kinase) was 0.93 nM.

COc1cc(C(F)(F)F)cc(OC[C@H]2CCCNC2)c1-c1cc(Nc2cnc(C#N)cn2)n[nH]1 [Example 45, (S)-5-((5-(2-methoxy-6-(piperidin-3-ylmethoxy)-4-(trifluoromethyl)phenyl)-1H-pyrazol-3-yl)amino)pyrazine-2-carbonitrile] gave an IC50 [1] of 9.5 nM, an IC50 [2] of 8.8 nM and an IC50 (CHK1 kinase) of 1.57 nM.

For N#Cc1cnc(Nc2cc(-c3c(F)cccc3OC[C@H]3CCCNC3)[nH]n2)cn1 [Example 46, (S)-5-((5-(2-fluoro-6-(piperidin-3-ylmethoxy)phenyl)-1H-pyrazol-3-yl)amino)pyrazine-2-carbonitrile], the IC50 [1] was 13.3 nM, the IC50 [2] was 14.7 nM and the IC50 (CHK1 kinase) was 0.59 nM.

In the case of N#Cc1cnc(Nc2cc(-c3c(Cl)cccc3OC[C@H]3CCCNC3)[nH]n2)cn1 [Example 47, (S)-5-((5-(2-chloro-6-(piperidin-3-ylmethoxy)phenyl)-1H-pyrazol-3-yl)amino)pyrazine-2-carbonitrile], the IC50 [1] is reported as 533 nM, the IC50 [2] is reported as 381 nM and the inhibition at 0.01 µM (CHK1 kinase) is reported as 40%.

N#Cc1cnc(Nc2cc(-c3c(O)cccc3OC[C@H]3CCCNC3)[nH]n2)cn1 [Example 48, (S)-5-((5-(2-hydroxy-6-(piperidin-3-ylmethoxy)phenyl)-1H-pyrazol-3-yl)amino)pyrazine-2-carbonitrile] showed an IC50 [1] of 5.4 nM, an IC50 [2] of 6.5 nM and an IC50 (CHK1 kinase) of 0.58 nM.

Compound N#Cc1cnc(Nc2cc(-c3c(F)cccc3OCC3CNC3)[nH]n2)cn1 [Example 53, 5-((5-(2-(azetidin-3-ylmethoxy)-6-fluorophenyl)-1H-pyrazol-3-yl)amino)pyrazine-2-carbonitrile] has an IC50 [1] of 72 nM, an IC50 [2] of 89.4 nM and an inhibition at 0.01 µM (CHK1 kinase) of 95%.
